Test results from patent US20260124184A1, “ONCE DAILY ALDOSTERONE SYNTHASE INHIBITOR (R)-(+)-5-(P-CYANOPHENYL)-5,6,7,8-TETRAHYDROIMIDAZO[L,5-A]PYRIDINE” (priority 2022, published 2026).
“Also recorded” adds a separate entry of the source. Like-named read-outs stand apart in the source and are kept apart here.

Assays:
[1] = system: patients with primary aldosteronism
Description: (§1) A double-blind, randomized, Phase 2 trial was conducted between November 2019 and June 2022 at 11 centres in Italy, Switzerland and the Netherlands (NCT04007406). […] Patients requiring fixed-dose antihypertensive therapy continued treatment throughout the study; steroid therapies, β-adrenergic and renin-angiotensin-aldosterone system blockers were not permitted. At 14-day intervals, office blood pressures were recorded and blood samples were taken for measurement of steroid and peptide hormones and electrolytes at a central laboratory.
Plasma aldosterone and plasma renin concentration were measured centrally under GCP regulations using the Liaison® chemiluminescent immunoassay kit supplied by DiaSorin S.p.A. Italy. The system used specific monoclonal antibodies to prevent cross reactions with other major potential reactants in the serum samples. The monoclonal antibodies directed against specific epitopes of the renin molecule allowed accurate and sensitive quantification. The assays were performed according to the instructions provided by the manufacturer. […] The analytical sensitivity was <0.97 ng/ml. […] The analytical sensitivity was <0.53 IU/mL.
(§2) For all efficacy endpoints, changes from baseline were calculated from linear models and accompanied by 95% confidence intervals and p values. Log-transformed values were used for changes in ARR. The full analysis set (FAS) and safety set were defined as all randomized patients who received at least one dose of study drug.

[2] = system: patients with primary aldosteronism; remark: listed apart in the source
Description: as §1
Blood pressure and pulse rate were measured at each visit after a >15-minute rest in sitting position. Blood pressure and pulse rate were measured using a locally calibrated and validated automated oscillometric device (e.g., Omron Healthcare). An adapted wrap cuff was placed on the dominant arm. Three repeat measurements with a 10-minute interval were recorded; the average of the 2nd and 3rd measurements were study relevant.
as §2

[3] = system: patients with primary aldosteronism; remark: listed apart in the source
Description: as §1
The urinary content of tetrahydroaldosterone (THA) was measured centrally by gas chromatography-coupled mass spectrometry (GC-MS).

[4] = 4 mg once daily, n=10, Day 1 (baseline)
[5] = 4 mg once daily, n=10, Day 70 (after placebo withdrawal)
[6] = 8 mg once daily, n=12, Day 1 (baseline)
[7] = 8 mg once daily, n=12, Day 70 (after placebo withdrawal)
[8] = 12 mg once daily, n=13, Day 1 (baseline)
[9] = 12 mg once daily, n=13, Day 70 (so in the source)
[10] = Day 70, after 14-day placebo withdrawal

(R)-(+)-5-(p-cyanophenyl)-5,6,7,8-tetrahydroimidazolium[1,5-a]pyridine dihydrogen phosphate [dexfadrostat phosphate]
change in ARR from baseline to Day 56, mean ([1]; 4 mg once daily, n=10): −20.87 (ng/dL)/(mU/L)
change in ARR from baseline to Day 56, median ([1]; 4 mg once daily, n=10): −14.98 (ng/dL)/(mU/L)
ARR, mean [1, 4]: 24.56 (ng/dL)/(mU/L)
ARR, median [1, 4]: 21.37 (ng/dL)/(mU/L)
ARR, mean ([1]; 4 mg once daily, n=10, Day 14): 4.57 (ng/dL)/(mU/L)
ARR, median ([1]; 4 mg once daily, n=10, Day 14): 3.76 (ng/dL)/(mU/L)
ARR, mean ([1]; 4 mg once daily, n=10, Day 28): 2.57 (ng/dL)/(mU/L)
ARR, median ([1]; 4 mg once daily, n=10, Day 28): 1.76 (ng/dL)/(mU/L)
ARR, mean ([1]; 4 mg once daily, n=10, Day 42): 2.87 (ng/dL)/(mU/L)
ARR, median ([1]; 4 mg once daily, n=10, Day 42): 2.07 (ng/dL)/(mU/L)
ARR, mean ([1]; 4 mg once daily, n=10, Day 56): 3.70 (ng/dL)/(mU/L)
ARR, median ([1]; 4 mg once daily, n=10, Day 56): 2.52 (ng/dL)/(mU/L)
ARR, mean [1, 5]: 12.34 (ng/dL)/(mU/L)
ARR, median [1, 5]: 11.47 (ng/dL)/(mU/L)
change in ARR from baseline to Day 56, mean ([1]; 8 mg once daily, n=12): −10.61 (ng/dL)/(mU/L)
change in ARR from baseline to Day 56, median ([1]; 8 mg once daily, n=12): −6.99 (ng/dL)/(mU/L)
ARR, mean [1, 6]: 11.58 (ng/dL)/(mU/L)
ARR, median [1, 6]: 7.18 (ng/dL)/(mU/L)
ARR, mean ([1]; 8 mg once daily, n=12, Day 14): 0.8 (ng/dL)/(mU/L)
ARR, median ([1]; 8 mg once daily, n=12, Day 14): 0.31 (ng/dL)/(mU/L)
ARR, mean ([1]; 8 mg once daily, n=12, Day 28): 1.26 (ng/dL)/(mU/L)
ARR, median ([1]; 8 mg once daily, n=12, Day 28): 0.4 (ng/dL)/(mU/L)
ARR, mean ([1]; 8 mg once daily, n=12, Day 42): 0.74 (ng/dL)/(mU/L)
ARR, median ([1]; 8 mg once daily, n=12, Day 42): 0.29 (ng/dL)/(mU/L)
ARR, mean ([1]; 8 mg once daily, n=12, Day 56): 0.96 (ng/dL)/(mU/L)
ARR, median ([1]; 8 mg once daily, n=12, Day 56): 0.27 (ng/dL)/(mU/L)
ARR, mean [1, 7]: 4.19 (ng/dL)/(mU/L)
ARR, median [1, 7]: 2.46 (ng/dL)/(mU/L)
change in ARR from baseline to Day 56, mean ([1]; 12 mg once daily, n=13): −15.61 (ng/dL)/(mU/L)
change in ARR from baseline to Day 56, median ([1]; 12 mg once daily, n=13): −13.97 (ng/dL)/(mU/L)
ARR, mean [1, 8]: 17.75 (ng/dL)/(mU/L)
ARR, median [1, 8]: 17.8 (ng/dL)/(mU/L)
ARR, mean [1, 9]: 9.3 (ng/dL)/(mU/L)
ARR, median [1, 9]: 13.72 (ng/dL)/(mU/L)
ARR upon drug withdrawal [1, 10]: ARR values returned towards baseline values
change in ARR from baseline to Day 56, mean ([1]; all doses combined, n=35): −15.40 (ng/dL)/(mU/L)
change in ARR from baseline to Day 56, median ([1]; all doses combined, n=35): −11.76 (ng/dL)/(mU/L)
LSM change in lognormal values of ARR from baseline ([1]; all patients, Day 1 to Day 56, FIG. 2A, p<0.0001): −2.54 (95% CI −2.9 to −2.2)
effect on ARR from baseline to day 56 ([1]; all three doses (4 mg, 8 mg, 12 mg)): significant reductions (p<0.0001) in ARR from baseline to day 56
effect on ARR over time ([1]; all three doses, baseline to day 14, 28, 42 and 56): rapid and significant (p<0.0001) reductions in ARR; also recorded: rapid and significant reductions (p<0.0001) in ARR
office blood pressure (oSBP), mean [2, 4]: 146.95 mmHg
office blood pressure (oSBP), median [2, 4]: 144.00 mmHg
office blood pressure (oSBP), mean ([2]; 4 mg once daily, n=10, Day 14): 134.55 mmHg
office blood pressure (oSBP), median ([2]; 4 mg once daily, n=10, Day 14): 136.25 mmHg
office blood pressure (oSBP), mean ([2]; 4 mg once daily, n=10, Day 28): 133.70 mmHg
office blood pressure (oSBP), median ([2]; 4 mg once daily, n=10, Day 28): 130.50 mmHg
office blood pressure (oSBP), mean ([2]; 4 mg once daily, n=10, Day 42): 134.90 mmHg
office blood pressure (oSBP), median ([2]; 4 mg once daily, n=10, Day 42): 132.75 mmHg
office blood pressure (oSBP), mean ([2]; 4 mg once daily, n=10, Day 56): 133.00 mmHg
office blood pressure (oSBP), median ([2]; 4 mg once daily, n=10, Day 56): 133.75 mmHg
office blood pressure (oSBP), mean [2, 5]: 142.20 mmHg
office blood pressure (oSBP), median [2, 5]: 145.25 mmHg
office blood pressure (oSBP), mean [2, 6]: 148.00 mmHg
office blood pressure (oSBP), median [2, 6]: 147.00 mmHg
office blood pressure (oSBP), mean ([2]; 8 mg once daily, n=12, Day 14): 137.88 mmHg
office blood pressure (oSBP), median ([2]; 8 mg once daily, n=12, Day 14): 137.50 mmHg
office blood pressure (oSBP), mean ([2]; 8 mg once daily, n=12, Day 28): 135.08 mmHg
office blood pressure (oSBP), median ([2]; 8 mg once daily, n=12, Day 28): 133.25 mmHg
office blood pressure (oSBP), mean ([2]; 8 mg once daily, n=12, Day 42): 137.83 mmHg
office blood pressure (oSBP), median ([2]; 8 mg once daily, n=12, Day 42): 134.50 mmHg
office blood pressure (oSBP), mean ([2]; 8 mg once daily, n=12, Day 56): 134.42 mmHg
office blood pressure (oSBP), median ([2]; 8 mg once daily, n=12, Day 56): 135.75 mmHg
office blood pressure (oSBP), mean [2, 7]: 142.46 mmHg
office blood pressure (oSBP), median [2, 7]: 139.75 mmHg
office blood pressure upon drug withdrawal [2, 10]: blood pressure values returned towards baseline levels
effect on office blood pressure ([2]; each dose arm, sustained over active treatment period): rapid and significant (p≤0.001) decrease in office blood pressure
change in urine THA content from baseline to Day 56, mean ([3]; 4 mg once daily, n=10): −66.90 24 μg/24-hour
change in urine THA content from baseline to Day 56, median ([3]; 4 mg once daily, n=10): −61.00 24 μg/24-hour
urine tetrahydroaldosterone (THA) content, mean [3, 4]: 78.90 24 μg/24-hour
urine tetrahydroaldosterone (THA) content, median [3, 4]: 80.00 24 μg/24-hour
urine tetrahydroaldosterone (THA) content, mean ([3]; 4 mg once daily, n=10, Day 56): 12.00 24 μg/24-hour
urine tetrahydroaldosterone (THA) content, median ([3]; 4 mg once daily, n=10, Day 56): 11.50 24 μg/24-hour
change in urine THA content from baseline to Day 56, mean ([3]; 8 mg once daily, n=12): −63.00 24 μg/24-hour
change in urine THA content from baseline to Day 56, median ([3]; 8 mg once daily, n=12): −50.00 24 μg/24-hour
urine tetrahydroaldosterone (THA) content, mean [3, 6]: 71.67 24 μg/24-hour
urine tetrahydroaldosterone (THA) content, median [3, 6]: 59.50 24 μg/24-hour
urine tetrahydroaldosterone (THA) content, mean ([3]; 8 mg once daily, n=12, Day 56): 8.67 24 μg/24-hour
urine tetrahydroaldosterone (THA) content, median ([3]; 8 mg once daily, n=12, Day 56): 5.00 24 μg/24-hour
change in urine THA content from baseline to Day 56, mean ([3]; 12 mg once daily, n=13): −58.31 24 μg/24-hour
change in urine THA content from baseline to Day 56, median ([3]; 12 mg once daily, n=13): −66.00 24 μg/24-hour
urine tetrahydroaldosterone (THA) content, mean [3, 8]: 67.38 24 μg/24-hour
urine tetrahydroaldosterone (THA) content, median [3, 8]: 69.00 24 μg/24-hour
urine tetrahydroaldosterone (THA) content, mean ([3]; 12 mg once daily, n=13, Day 56): 9.08 24 μg/24-hour
urine tetrahydroaldosterone (THA) content, median ([3]; 12 mg once daily, n=13, Day 56): 5.00 24 μg/24-hour
effect on urinary tetrahydroaldosterone content ([3]; all three doses, 24-hour urine at end of active treatment vs baseline): significant reductions (p<0.0001) in tetrahydroaldosterone (THA) content
urine aldosterone content, mean ([3]; baseline urine aldosterone 10-50 μg/24-hour, 4 mg QD, Day 1 (baseline)): 26 μg/24-hour
urine aldosterone content, mean ([3]; baseline urine aldosterone 10-50 μg/24-hour, 4 mg QD, Day 56): 6 μg/24-hour
urine aldosterone content, mean ([3]; baseline urine aldosterone 10-50 μg/24-hour, 8 mg QD, Day 1 (baseline)): 33 μg/24-hour
urine aldosterone content, mean ([3]; baseline urine aldosterone 10-50 μg/24-hour, 8 mg QD, Day 56): 8 μg/24-hour
urine aldosterone content, mean ([3]; baseline urine aldosterone 10-50 μg/24-hour, 12 mg QD, Day 1 (baseline)): 29 μg/24-hour
urine aldosterone content, mean ([3]; baseline urine aldosterone 10-50 μg/24-hour, 12 mg QD, Day 56): 3 μg/24-hour
urine aldosterone content, mean ([3]; baseline urine aldosterone 50-100 μg/24-hour, 4 mg QD, Day 1 (baseline)): 74 μg/24-hour
urine aldosterone content, mean ([3]; baseline urine aldosterone 50-100 μg/24-hour, 4 mg QD, Day 56): 15 μg/24-hour
urine aldosterone content, mean ([3]; baseline urine aldosterone 50-100 μg/24-hour, 8 mg QD, Day 1 (baseline)): 69 μg/24-hour
urine aldosterone content, mean ([3]; baseline urine aldosterone 50-100 μg/24-hour, 8 mg QD, Day 56): 5 μg/24-hour
urine aldosterone content, mean ([3]; baseline urine aldosterone 50-100 μg/24-hour, 12 mg QD, Day 1 (baseline)): 68 μg/24-hour
urine aldosterone content, mean ([3]; baseline urine aldosterone 50-100 μg/24-hour, 12 mg QD, Day 56): 12 μg/24-hour
urine aldosterone content, mean ([3]; baseline urine aldosterone 100-250 μg/24-hour, 4 mg QD, Day 1 (baseline)): 123 μg/24-hour
urine aldosterone content, mean ([3]; baseline urine aldosterone 100-250 μg/24-hour, 4 mg QD, Day 56): 13 μg/24-hour
urine aldosterone content, mean ([3]; baseline urine aldosterone 100-250 μg/24-hour, 8 mg QD, Day 1 (baseline)): 69 μg/24-hour
urine aldosterone content, mean ([3]; baseline urine aldosterone 100-250 μg/24-hour, 8 mg QD, Day 56): 5 μg/24-hour
urine aldosterone content, mean ([3]; baseline urine aldosterone 100-250 μg/24-hour, 12 mg QD, Day 1 (baseline)): 68 μg/24-hour
urine aldosterone content, mean ([3]; baseline urine aldosterone 100-250 μg/24-hour, 12 mg QD, Day 56): 12 μg/24-hour
